In BindingDB's records for patent WO2022109573 (VERTEX PHARMACEUTICALS INCORPORATED, 2022):

Molecular target: T1, Cystic fibrosis transmembrane conductance regulator [1-507,509-1480] (Human, UniProt P13569, DEL508-508)
T1 construct: 1-507,509-1480
Experiment: Chamber Assay of CFTR-mediated short-circuit currents
Method: ssing chamber experiments were performed using human bronchial epithelial (HBE) cells derived from CF subjects heterozygous for F508del and a minimal function CFTR mutation (F508del/MF-HBE) and cultured as previously described (Neuberger T, Burton B, Clark H, Van Goor F Methods Mol Biol 2011:741:39-54). After four days the apical media was removed, and the cells were grown at an air liquid interface for >14 days prior to use. […] To isolate the CFTR-mediated short-circuit (ISC) current, F508del/MF-HBE grown on Costar Snapwell cell culture inserts were mounted in an Ussing chamber and the transepithelial ISC was measured under voltage-clamp recording conditions (Vhold= 0 mV) at 37 °C. The basolateral solution contained (in mM) 145 NaCl, 0.83 K2HPO4, 3.3 KH2PO4, 1.2 MgCl2, 1.2 CaCl2, 10 Glucose, 10 HEPES (pH adjusted to 7.4 with NaOH) and the apical solution contained (in mM) 145 NaGluconate, 1.2 MgCl2, 1.2 CaCl2, 10 glucose, 10 HEPES (pH adjusted to 7.4 with NaOH) and 30 µM amiloride to block the epithelial sodium channel. Forskolin (20 µM) was added to the apical surface to activate CFTR, followed by apical addition of a CFTR inhibitor cocktail consisting of BPO, GlyH-101 and CFTR inhibitor 172 (each at 20 µM final assay concentration) to specifically isolate CFTR currents. The CFTR-mediated ISC (µA/cm2) for each condition was determined from the peak forskolin response to the steady-state current following inhibition.

T1 sequence (P13569 as listed by the source): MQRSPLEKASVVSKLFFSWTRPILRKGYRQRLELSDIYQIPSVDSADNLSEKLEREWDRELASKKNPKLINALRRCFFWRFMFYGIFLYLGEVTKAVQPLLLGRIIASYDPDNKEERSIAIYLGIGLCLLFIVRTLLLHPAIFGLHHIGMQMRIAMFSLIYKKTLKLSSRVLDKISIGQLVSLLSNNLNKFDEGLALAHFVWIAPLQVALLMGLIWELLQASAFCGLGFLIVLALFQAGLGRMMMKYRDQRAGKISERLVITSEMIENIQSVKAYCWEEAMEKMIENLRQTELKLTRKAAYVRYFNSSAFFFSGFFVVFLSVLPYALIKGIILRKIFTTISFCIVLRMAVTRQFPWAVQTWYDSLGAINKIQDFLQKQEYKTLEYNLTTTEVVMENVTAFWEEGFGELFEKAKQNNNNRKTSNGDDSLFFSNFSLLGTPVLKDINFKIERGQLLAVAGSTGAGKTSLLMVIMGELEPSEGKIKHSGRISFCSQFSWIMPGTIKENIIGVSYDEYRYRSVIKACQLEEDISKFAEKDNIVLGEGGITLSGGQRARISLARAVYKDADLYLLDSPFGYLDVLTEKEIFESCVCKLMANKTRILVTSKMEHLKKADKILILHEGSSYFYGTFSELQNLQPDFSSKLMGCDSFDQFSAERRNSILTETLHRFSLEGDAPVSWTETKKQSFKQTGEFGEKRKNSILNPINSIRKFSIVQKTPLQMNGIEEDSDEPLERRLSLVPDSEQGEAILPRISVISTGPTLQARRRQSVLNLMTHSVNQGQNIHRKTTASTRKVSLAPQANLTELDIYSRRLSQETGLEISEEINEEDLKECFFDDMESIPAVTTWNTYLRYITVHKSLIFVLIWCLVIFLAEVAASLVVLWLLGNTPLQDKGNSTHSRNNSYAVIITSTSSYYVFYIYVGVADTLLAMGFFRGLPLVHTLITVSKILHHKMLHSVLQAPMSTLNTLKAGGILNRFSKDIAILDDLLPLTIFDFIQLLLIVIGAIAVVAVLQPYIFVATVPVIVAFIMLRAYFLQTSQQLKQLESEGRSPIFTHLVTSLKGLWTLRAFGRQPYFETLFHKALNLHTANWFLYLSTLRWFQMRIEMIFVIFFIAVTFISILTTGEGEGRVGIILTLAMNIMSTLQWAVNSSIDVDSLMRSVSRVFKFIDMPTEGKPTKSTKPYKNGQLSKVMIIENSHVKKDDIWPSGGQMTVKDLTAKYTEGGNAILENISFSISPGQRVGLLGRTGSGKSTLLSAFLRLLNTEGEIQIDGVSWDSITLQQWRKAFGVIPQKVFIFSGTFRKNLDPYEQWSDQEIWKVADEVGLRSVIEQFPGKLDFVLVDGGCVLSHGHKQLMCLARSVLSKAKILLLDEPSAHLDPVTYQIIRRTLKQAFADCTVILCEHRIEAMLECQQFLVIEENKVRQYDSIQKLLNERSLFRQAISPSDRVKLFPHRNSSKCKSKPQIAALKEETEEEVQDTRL

EC50 [nM]	Structure (SMILES)
< 500	Nc1cc(C(F)(F)F)c2nc1-c1nnc(o1)C(O)(C(F)(F)F)CCCC[C@@H]1CCCN21 (stereo partly specified) [WO2022109573, Compound 32]
< 500	CC1(O)CCCCC[C@@H]2CCCN2c2nc(c(N)cc2C(F)(F)F)C2=NN=C1O2 (stereo partly specified) [WO2022109573, Compound 45]
< 500	Nc1cc(C(F)(F)F)c2nc1-c1nnc(o1)[C@@](O)(C(F)(F)F)CCCC[C@@H]1CCCN21 [WO2022109573, Compound 17]
< 500	CN1CCCCCCC(O)(C(F)(F)F)C2=NN=C(O2)c2nc1c(C(F)(F)F)cc2N (stereo unspecified) [WO2022109573, Compound 19]
< 500	Nc1cc(C(F)(F)F)c2nc1-c1nnc(o1)[C@@](O)(C(F)(F)F)CCCC[C@H]1CCCN21 [WO2022109573, Compound 18]
< 500	Nc1cc(C(F)(F)F)c2nc1-c1nnc(o1)[C@](O)(C(F)(F)F)CCCCC[C@@H]1CCCN21 [WO2022109573, Compound 4]
< 500	Nc1cc(C(F)(F)F)c2nc1-c1nnc(o1)[C@](O)(C(F)(F)F)CCCCC[C@H]1CCCN21 [WO2022109573, Compound 7]
< 500	CC1(C)CC2CCCCCC(O)(C(F)(F)F)C3=NN=C(O3)c3nc(c(C(F)(F)F)cc3N)N2C1 (stereo unspecified) [WO2022109573, Compound 29]
< 500	Nc1cc(C(F)(F)F)c2nc1-c1nnc(o1)[C@@](O)(C(F)(F)F)CCCCCC[C@H]1CCCN21 [WO2022109573, Compound 24]
< 500	CCOC(=O)CN1CCCCCCC(O)(C(F)(F)F)C2=NN=C(O2)c2nc1c(C(F)(F)F)cc2N (stereo unspecified) [WO2022109573, Compound 46]

Second part, the compound before the results:

Structure (SMILES)	EC50 [nM]
CNc1cc(C(F)(F)F)c2nc1-c1nnc(o1)[C@@](O)(C(F)(F)F)CCCCC[C@@H]1CCCN21 [WO2022109573, Compound 13]	< 500
Nc1cc(C(F)(F)F)c2nc1-c1nnc(o1)[C@](O)(C(F)(F)F)CCCCC1CCN2C1 (stereo partly specified) [WO2022109573, Compound 9]	< 500
CCNc1cc(C(F)(F)F)c2nc1-c1nnc(o1)[C@@](O)(C(F)(F)F)CCCCC[C@@H]1CCCN21 [WO2022109573, Compound 14]	< 500
Nc1cc(C(F)(F)F)c2nc1-c1nnc(o1)[C@@](O)(C(F)(F)F)CCCCC1CCN2C1 (stereo partly specified) [WO2022109573, Compound 8]	< 500
Nc1cc(C(F)(F)F)c2nc1-c1nnc(o1)C(=O)CCCCC[C@@H]1CCCN21 [WO2022109573, Compound 36]	< 500
Nc1cc(C(F)(F)F)c2nc1-c1nnc(o1)C(O)(C(F)(F)F)CCCCCCN2CCO (stereo unspecified) [WO2022109573, Compound 41]	< 500
Nc1cc(C(F)(F)F)c2nc1-c1nnc(o1)[C@@](O)(C(F)(F)F)CCCCCC[C@@H]1CCCN21 [WO2022109573, Compound 23]	< 500
Nc1cc(C(F)(F)F)c2nc1-c1nnc(o1)[C@](O)(C(F)(F)F)CCCCCC[C@H]1CCCN21 [WO2022109573, Compound 25]	< 500
Nc1cc(C(F)(F)F)c2nc1-c1nnc(o1)C(O)CCCCC[C@@H]1CCCN21 (stereo partly specified) [WO2022109573, Compound 21]	< 500
Nc1cc(C(F)(F)F)c2nc1-c1nnc(o1)/C(=N\O)CCCCC[C@@H]1CCCN21 [WO2022109573, Compound 31]	< 500
Nc1cc(C(F)(F)F)c2nc1-c1nnc(o1)C(O)(C(F)(F)F)CCCC(=O)N1CCN2CC1 (stereo unspecified) [WO2022109573, Compound 37]	< 500
